Test results as given in patent US20240190854A1, “PYRIMIDINE OR PYRIDINE DERIVATIVES USEFUL AS HCN2 MODULATORS” (King's College London, priority 2021, published 2024).
Where a name gives a salt, the structure may show the parent alone.

Columns and labels:
HCN2 = HCN2 (Homo sapiens (Human), UniProt Q9UL51); assay: HCN2 current assay using PatchXpress 7000A; assay type: cell-based; conditions: PatchXpress protocol; read-out: PX HCN2 IC50
Protocol: (§1) Example 126A, Using PatchXpress 7000A
(§2) Solutions for recording HCN currents were:
The membrane voltage was then stepped back to −30 mV for a further 8 seconds.
(§3) The peak inward current measured at the end of the pulse to −110 mV (HCN1 and HCN2) or −130 mV (HCN4) was measured and any leak current subtracted to calculate the HCN current. The HCN current amplitude was measured after each control or compound addition and normalized to the control amplitude (Control A).
(§4) All experiments were performed at room temperature (approximately 22° C.).
(§5) Each test compound concentration was applied to the cell for seven (7) minutes, at which point the next cumulative concentration was applied.

HCN4 = HCN4 (Homo sapiens (Human), UniProt Q9Y3Q4); assay: HCN4 current assay using PatchXpress 7000A; assay type: cell-based; conditions: PatchXpress protocol; read-out: PX HCN4 IC50
Protocol: as §1, §2, §3, §4, §5

Sequence of HCN4 (Q9Y3Q4 whole entry, species assumed): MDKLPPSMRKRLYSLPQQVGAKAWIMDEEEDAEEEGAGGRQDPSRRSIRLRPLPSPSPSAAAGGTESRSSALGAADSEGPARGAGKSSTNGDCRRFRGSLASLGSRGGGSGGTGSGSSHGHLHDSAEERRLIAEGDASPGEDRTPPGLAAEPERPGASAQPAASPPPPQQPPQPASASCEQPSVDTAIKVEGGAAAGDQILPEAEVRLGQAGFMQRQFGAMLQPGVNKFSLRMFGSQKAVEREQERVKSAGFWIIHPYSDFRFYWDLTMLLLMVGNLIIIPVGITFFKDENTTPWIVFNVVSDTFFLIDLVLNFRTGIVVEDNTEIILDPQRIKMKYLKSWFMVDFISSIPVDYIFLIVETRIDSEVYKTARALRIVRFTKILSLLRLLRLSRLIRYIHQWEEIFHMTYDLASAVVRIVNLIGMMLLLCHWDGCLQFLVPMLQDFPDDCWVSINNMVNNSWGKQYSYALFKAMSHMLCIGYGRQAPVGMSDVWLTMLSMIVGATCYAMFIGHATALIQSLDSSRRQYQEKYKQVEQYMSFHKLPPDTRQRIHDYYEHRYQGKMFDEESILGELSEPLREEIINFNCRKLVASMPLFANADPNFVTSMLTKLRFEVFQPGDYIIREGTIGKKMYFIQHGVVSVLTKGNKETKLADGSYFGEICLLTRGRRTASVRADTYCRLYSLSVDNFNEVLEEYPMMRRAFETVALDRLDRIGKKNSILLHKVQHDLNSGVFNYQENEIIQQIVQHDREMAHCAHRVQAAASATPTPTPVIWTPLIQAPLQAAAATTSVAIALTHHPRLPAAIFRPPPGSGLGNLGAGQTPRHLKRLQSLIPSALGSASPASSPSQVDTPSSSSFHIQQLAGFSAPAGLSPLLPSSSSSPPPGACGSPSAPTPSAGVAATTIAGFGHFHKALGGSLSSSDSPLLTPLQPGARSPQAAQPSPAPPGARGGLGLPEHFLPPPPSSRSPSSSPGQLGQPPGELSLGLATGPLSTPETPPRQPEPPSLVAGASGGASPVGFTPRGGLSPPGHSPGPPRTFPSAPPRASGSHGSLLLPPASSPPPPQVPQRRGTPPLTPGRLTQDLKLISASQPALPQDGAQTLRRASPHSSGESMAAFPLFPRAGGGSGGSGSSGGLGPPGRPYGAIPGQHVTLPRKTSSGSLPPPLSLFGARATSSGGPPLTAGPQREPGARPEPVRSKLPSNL
Sequence of HCN2 (Q9UL51 whole entry): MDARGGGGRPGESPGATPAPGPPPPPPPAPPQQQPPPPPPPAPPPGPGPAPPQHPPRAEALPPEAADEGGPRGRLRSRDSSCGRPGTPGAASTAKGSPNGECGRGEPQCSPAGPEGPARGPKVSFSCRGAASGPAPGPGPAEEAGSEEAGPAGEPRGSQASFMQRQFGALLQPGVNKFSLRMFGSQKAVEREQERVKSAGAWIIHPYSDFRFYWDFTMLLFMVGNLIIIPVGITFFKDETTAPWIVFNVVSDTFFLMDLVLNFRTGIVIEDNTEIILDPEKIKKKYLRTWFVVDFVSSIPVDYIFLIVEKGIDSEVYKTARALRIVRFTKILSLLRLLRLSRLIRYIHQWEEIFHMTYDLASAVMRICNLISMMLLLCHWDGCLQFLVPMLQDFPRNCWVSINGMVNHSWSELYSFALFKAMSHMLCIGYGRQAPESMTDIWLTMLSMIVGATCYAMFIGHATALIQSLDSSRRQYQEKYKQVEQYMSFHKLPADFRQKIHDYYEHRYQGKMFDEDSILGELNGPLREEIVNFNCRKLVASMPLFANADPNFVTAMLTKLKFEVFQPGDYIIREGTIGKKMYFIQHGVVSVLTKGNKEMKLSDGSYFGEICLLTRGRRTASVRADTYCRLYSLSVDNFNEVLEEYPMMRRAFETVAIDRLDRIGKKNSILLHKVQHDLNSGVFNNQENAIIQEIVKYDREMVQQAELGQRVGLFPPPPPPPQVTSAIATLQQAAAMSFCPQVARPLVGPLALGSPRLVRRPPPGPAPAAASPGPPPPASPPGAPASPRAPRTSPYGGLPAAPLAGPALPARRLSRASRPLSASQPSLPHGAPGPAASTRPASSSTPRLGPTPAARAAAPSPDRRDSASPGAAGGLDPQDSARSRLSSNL

SMILES | IC50 (HCN2) [µM] | IC50 (HCN4) [µM]
CC(c1ccccn1)C(N)c1ccccc1-c1noc2ccccc12 (single isomer, unassigned; diastereomer 1) [Example 1, 1-[2-(Benzo[d]isoxazol-3-yl)phenyl]-2-(pyridin-2-yl)propan-1-amine hydrochloride (diastereomer 1)] | 7.4 | 
CC(c1ccccn1)C(N)c1ccccc1-c1noc2ccccc12 (single isomer, unassigned; diastereomer 2) [Example 2, 1-[2-(Benzo[d]isoxazol-3-yl)phenyl]-2-(pyridin-2-yl)propan-1-amine hydrochloride (diastereomer 2)] | 0.96 | > 30
CC(c1ccccn1)C(N)c1ccccc1-c1noc2ccccc12 (single isomer, unassigned; diastereomer 3) [Example 3, 1-[2-(Benzo[d]isoxazol-3-yl)phenyl]-2-(pyridin-2-yl)propan-1-amine hydrochloride (diastereomer 3)] | 2.3 | > 30
CS(=O)(=O)c1nc(C[C@H](N)c2ccccc2-c2noc3ccccc23)ccc1F [Example 7, (S)-1-[2-(Benzo[d]isoxazol-3-yl)phenyl]-2-(5-fluoro-6-methylsulfonylpyridine-2-yl)ethan-1-amine hydrochloride] | 5.7 | 
Cc1ccc(C(=O)N(C)C)nc1C[C@H](N)c1ccccc1-c1noc2ccccc12 [Example 8, (S)-6-{2-Amino-2-[2-(benzo[d]isoxazol-3-yl)phenyl]ethyl}-N,N,5-trimethylpyridine-2-carboxamide] | 2.5 | 
C#Cc1ccc2c(-c3ccccc3[C@@H](N)Cc3ccccn3)noc2c1 [Example 31, (S)-1-[2-(6-Ethynylbenzo[d]isoxazol-3-yl)phenyl]-2-(pyridine-2-yl)ethan-1-amine hydrochloride] | 1.6 | 6.7
N[C@@H](Cc1ccccn1)c1ccccc1-c1noc2cc(C#CCO)ccc12 [Example 32, (S)-1-[2-(6-[3-Hydroxyprop-1-yn-1-yl]benzo[d]isoxazol-3-yl)phenyl]-2-(pyridine-2-yl)ethan-1-amine hydrochloride] | 8.5 | 
N[C@@H](Cc1ccccn1)c1ccccc1-c1noc2cc(C3CC3)ccc12 [Example 34, (S)-1-[2-(6-Cyclopropylbenzo[d]isoxazol-3-yl)phenyl]-2-(pyridine-2-yl)ethan-1-amine] | 16.7 | 
CC(O)c1ccc2c(-c3ccccc3[C@@H](N)Cc3ccccn3)noc2c1 (stereo partly drawn) [Example 35, (S)-1-[2-(6-[1-Hydroxyethyl]benzo[d]isoxazol-3-yl)phenyl]-2-(pyridine-2-yl)ethan-1-amine] | 8.9 | 
N#Cc1ccc(-c2noc3ccccc23)c([C@@H](N)Cc2ccccn2)c1 [Example 37, (S)-1-[2-(Benzo[d]isoxazol-3-yl)-5-cyanophenyl]-2-(pyridine-2-yl)ethan-1-amine hydrochloride] | 14 | 
Cc1ccc([C@@H](N)Cc2ccccn2)c(-c2noc3ccccc23)c1 [Example 38, (S)-1-[2-(Benzo[d]isoxazol-3-yl)-4-methylphenyl]-2-(pyridine-2-yl)ethan-1-amine hydrochloride] | 13 | 
N[C@@H](Cc1cccc(C(O)CO)n1)c1ccccc1-c1noc2ccccc12 (stereo partly drawn) [Example 41, 1-(6-{(S)-2-Amino-2-[2-(benzo[d]isoxazol-3-yl)phenyl]ethyl}pyridine-2-yl)ethan-1,2-diol hydrochloride] | 14.1 | > 30
N[C@@H](Cc1ccccn1)c1ccccc1-c1noc2cccc(Br)c12 [Example 43, (S)-1-[2-(4-Bromobenzo[d]isoxazol-3-yl)phenyl]-2-(pyridine-2-yl)ethan-1-amine hydrochloride] | 16 | 
CC[C@H](c1ccccn1)[C@H](N)c1ccccc1-c1noc2ccccc12 [Example 45, (1S,2S)-1-[2-(Benzo[d]isoxazol-3-yl)phenyl]-2-(pyridin-2-yl)butan-1-amine hydrochloride] | 22.1 | 
N[C@@H](Cc1cccc(N2CC[C@@H](O)C2)n1)c1ccccc1-c1noc2ccccc12 [Example 50, (R)-1-(6-{(S)-2-Amino-2-[2-(benzo[d]isoxazol-3-yl)phenyl]ethyl}pyridine-2-yl)pyrrolidin-3-ol hydrochloride] | 5.6 | 4.9
COCCN(C)c1cccc(C[C@H](N)c2ccccc2-c2noc3ccccc23)n1 [Example 51, (S)-6-{2-Amino-2-[2-(benzo[d]isoxazol-3-yl)phenyl]ethyl}-N-(2-methoxyethyl)-N-methyl pyridin-2-amine hydrochloride] | 1.7 | 3.4
N[C@@H](Cc1cccc(N2CC[C@H](O)C2)n1)c1ccccc1-c1noc2ccccc12 [Example 53, (S)-1-(6-{(S)-2-Amino-2-[2-(benzo[d]isoxazol-3-yl)phenyl]ethyl}pyridine-2-yl)pyrrolidin-3-ol hydrochloride] | 6.2 | 
N[C@@H](Cc1cccc(N2CCOCC2)n1)c1ccccc1-c1noc2ccccc12 [Example 54, (S)-1-[2-(Benzo[d]isoxazol-3-yl)phenyl]-2-(6-morpholinopyridine-2-yl)ethane-1-amine hydrochloride] | 1 | 2.1

SMILES | IC50 (HCN2) [µM] | IC50 (HCN4) [µM]
CN(CCO)c1cccc(C[C@H](N)c2ccccc2-c2noc3ccccc23)n1 [Example 55, (S)-2-[(6-{(S)-2-Amino-2-[2-(benzo[d]isoxazol-3-yl)phenyl]ethyl}pyridine-2-yl)(methyl)amino]ethan-1-ol hydrochloride] | 0.8 | 2
Cc1ccc(Br)nc1C[C@H](N)c1ccccc1-c1noc2ccccc12 [Example 57, (S)-1-[2-(Benzo[d]isoxazol-3-yl)phenyl]-2-(6-bromo-3-methylpyridin-2-yl)ethan-1-amine hydrochloride] | 0.6 | 2.4
Cc1ccc(C#N)nc1C[C@H](N)c1ccccc1-c1noc2ccccc12 [Example 58, (S)-1-[2-(Benzo[d]isoxazol-3-yl)phenyl]-2-(6-cyano-3-methylpyridin-2-yl)ethan-1-amine] | 0.5 | 7.2
Cc1ccc(C)c(C[C@H](N)c2ccccc2-c2noc3ccccc23)n1 [Example 59, (S)-1-[2-(benzo[d]isoxazol-3-yl)phenyl]-2(6-vinylpyridin-2-yl)ehtan-1-amine] | 0.9 | 6.8
CC(C)n1nc(-c2ccccc2[C@@H](N)Cc2cccc(Br)n2)c2ccccc21 [Example 64, (S)-2-(6-Bromopyridine-2-yl)-1-[2-(1-isopropyl-1H-indazole-3-yl)phenyl]ethan-1-amine hydrochloride] | 1.3 | 6.4
CC(C)n1nc(-c2ccccc2[C@@H](N)Cc2ccccn2)c2ccccc21 [Example 65, (S)-1-[2-(1-isopropyl-1H-indazole-3-yl)phenyl]-2-(pyridine-2-yl)ethan-1-amine hydrochloride] | 1.1 | 5.1
Cc1cccc(C[C@H](N)c2ccccc2-c2nn(C(C)C)c3ccccc23)n1 [Example 66, (S)-1-[2-(1-Isopropyl-1H-indazole-3-yl)phenyl]-2-(6-methylpyridine-2-yl)ethan-1-amine hydrochloride] | 0.9 | 6.8
CC(=O)Nc1cccnc1C[C@H](N)c1ccccc1-c1noc2ccccc12 [Example 76, (S)—N-(2-{2-Amino-2-[2-(benzo[d]isoxazol-3-yl)phenyl]ethyl}pyridin-3-yl)acetamide hydrochloride] | 8.7 | 
N[C@@H](Cc1ncccc1C1CC1)c1ccccc1-c1noc2ccccc12 [Example 79, (S)-1-[2-(Benzo[d]isoxazol-3-yl)phenyl]-2-(3-cyclopropylpyridin-2-yl)ethan-1-amine formate] | 4.9 | 
Cc1cc(C#N)cnc1C[C@H](N)c1ccccc1-c1noc2ccccc12 [Example 80, (S)-1-[2-(Benzo[d]isoxazol-3-yl)phenyl]-2-(3-methyl-5-cyanopyridin-2-yl)ethan-1-amine] | 1.9 | 
N#Cc1ccc(C[C@H](N)c2ccccc2-c2noc3cc(Br)ccc23)nc1 [Example 81, (S)-1-[2-(6-Bromobenzo[d]isoxazol-3-yl)phenyl]-2-(5-cyanopyridine-2-yl)ethan-1-amine] | 10.8 | > 30
COc1ccc(-c2noc3ccccc23)c([C@@H](N)Cc2ccccn2)c1 [Example 82, (S)-1-[2-(Benzo[d]isoxazol-3-yl)-5-methoxyphenyl]-2-(pyridine-2-yl)ethan-1-amine hydrochloride] | 26.6 | 
N[C@@H](Cc1ccccn1)c1ccc(Br)cc1-c1noc2ccccc12 [Example 85, (S)-1-[2-(Benzo[d]isoxazol-3-yl)-4-bromophenyl]-2-(pyridine-2-yl)ethan-1-amine] | 13 | 
N[C@@H](Cc1ccccn1)c1cccc(Br)c1-c1noc2ccccc12 [Example 86, (S)-1-[2-(Benzo[d]isoxazol-3-yl)-3-bromophenyl]-2-(pyridine-2-yl)ethan-1-amine hydrochloride] | 17.4 | 
N[C@@H](Cc1ccccn1)c1ccccc1-c1noc2ccc(Br)cc12 [Example 113, (S)-1-[2-(5-Bromobenzo[d]isoxazol-3-yl)phenyl]-2-(pyridine-2-yl)ethan-1-amine hydrochloride] | 22.9 | 
COc1cccc(C[C@H](N)c2ccccc2-c2noc3ccccc23)n1 [Example 115, (S)-1-[2-(Benzo[d]isoxazol-3-yl)phenyl]-2-(6-methoxypyridine-2-yl)ethan-1-amine hydrochloride] | 0.69 | 
N#Cc1cccc(C[C@H](N)c2ccccc2-c2noc3cc(Br)ccc23)n1 [Example 120, (S)-{2-Amino-[2-(6-bromobenzo[d]isoxazol-3-yl)phenyl]ethyl}-6-cyanopyridine] | 1.6 | 
